In patent publication US6222035A, “[1,2,4] triazolo [1,5-C] pyrimidine derivatives” (Kyowa Hakko Kogyo Co., Ltd., priority 1997, dated 2001):

Key:
adenosine A2A receptor = target: T1, adenosine A2A receptor (Rattus norvegicus, UniProt P30543); test: Adenosine receptor binding activity (adenosine A2A receptor binding test), 3H-CGS 21680 binding; conditions: 2 h, read-out: A2A receptor inhibition ratio (%); for inhibition at 0.1 µM: 10^-7 M; for inhibition at 0.01 µM: 10^-8 M
T1 construct: from tissue; host or cells: rat corpus striatum, washed membrane suspension
Procedure: Adenosine receptor binding activity (adenosine A2A receptor binding test) This test was carried out by slightly modifying the method of Bruns et al. [Molecular Pharmacology, 29: 331 (1986)].
Corpus striatum of a rat was suspended in an ice-cooled 50 mM tris(hydroxymethyl)aminomethane hydrochloride (hereinafter referred to as "Tris-HCl") buffer (pH 7.7) using Polytron Homogenizer (manufactured by Kinematica Co.). The suspension was centrifuged (50,000×g, 10 minutes), and the obtained precipitate was re-suspended in the same amount of 50 mM Tris-HCl buffer. The suspension was centrifuged under the same conditions, and the final precipitate was suspended in 50 mM Tris-HCl [containing 10 mM magnesium chloride and 0.02 unit/mg tissue of adenosine deaminase (manufactured by Sigma Co.)] to give a tissue concentration of 5 mg (wet weight)/ml.
To 1 ml of the tissue suspension thus prepared were added 50 μl of tritium-labeled CGS 21680 {^3 H-2-[p-(2-carboxyethyl)phenethylamino]-5'-N-ethylcarboxamido)adenosine: 40 Ci/mmol; manufactured by New England Nuclear Co.[The Journal of Pharmacology and Experimental Therapeutics, 251: 888 (1989)]} (final concentration:4.0 nM) and 50 μl of a test compound. The resulting mixture was allowed to stand for 120 minutes at 25° C., and then rapidly filtered by suction through a glass fiber filter (GF/C, manufactured by Whatman Co.) The filter was immediately washed three times with […] of an ice-cooled 50 mM Tris-HCl buffer, and transferred to a vial, a scintillator (EX-H , manufactured by Wako Pure Chemical Industries, Ltd.) was added thereto, and the radioactivity on the filter was determined with a liquid scintillation counter (manufactured by Packard Instrument Co.) […]
The inhibition ratio of the test compound against the A2A receptor binding (^3 H-CGS 21680 binding) was calculated by the following equation:
Inhibition ratio (%)={1-(Amount of the binding in the presence of the test compound-Amount of the nonspecific binding)/(Amount of the total binding-Amount of the nonspecific binding)}×100
(Note) Amount of the total binding means the amount of radioactivity of ^3 H-CGS 21680 bound in the absence of the test compound. Amount of the nonspecific binding means the amount of radioactivity of ^3 H-CGS 21680 bound in the presence of 100 μM cyclopentyladenosine (CPA, manufactured by Sigma Co.) Amount of the binding in the presence of the test compound means the amount of radioactivity of ^3 H-CGS 21680 bound in the presence of the test compound at various levels of concentrations.

[1] = tested on: CGS 21680-induced catalepsy in mice; test: Activity on CGS 21680-induced Catalepsy; assay type: in vivo, mouse (male ddY); conditions: 10 mg/kg oral; for Total score (catalepsy): 10 animals, maximum 50 points, control 48; for Number of Animals showing remission: catalepsy score 4 points or less in 10 cases; for inhibition in vivo at 10 mg/kg: Mus musculus, CGS 21680-induced catalepsy, read-out: Remission ratio (%)
Procedure: Activity on CGS 21680-induced Catalepsy
Parkinson's disease is motor deficit based on the degeneration and cell death of the nigrostriatal dopaminergic neuron. […] [Journal of Neuroscience, 16: 605 (1996)]. Accordingly, it is considered that adenosine A2A receptor agonists positively regulate the output of the striopallidal GABAergic neurons and, as a result, catalepsy is induced by the administration of CGS 21680.
This test was carried out using 10 animals per group of male ddY mice of 5 week age (22 to 25 g in body weight, Japan SLC). CGS 21680 (manufactured by RBI) was dissolved in a physiological saline (manufactured by Otsuka Pharmaceutical), and 10 μg/20 μl of the solution was injected into mouse intracerebro-ventricle. Test compounds were used by suspending them in distilled water containing 0.3% of polyoxyethylene(20)sorbitan monooleate (hereinafter referred to as "Tween 80") (manufactured by Otsuka Pharmaceutical). […] One hour after the administration of the test compound, only forelimbs or only hindlimbs of each animal were laid on a vertically arranged stand made of acryl, having a size of 4.5 cm in height and 1.0 cm in width, to measure catalepsy symptoms. All of the compounds were administered orally in a dose of 10 mg/kg.
The effect was judged by total catalepsy scores of 10 animals in one group (the maximum is 50 points). When the total score was 40 points or less, the activity of drugs was judged positive. The number of animals showing remission of catalepsy was expressed by the number of cases in which the catalepsy score was 4 points or less in 10 cases. The catalepsy remission ratio was expressed as the percentage of the total score in the test compound-administered group to the total score in the control group.

T1 sequence (P30543 whole entry): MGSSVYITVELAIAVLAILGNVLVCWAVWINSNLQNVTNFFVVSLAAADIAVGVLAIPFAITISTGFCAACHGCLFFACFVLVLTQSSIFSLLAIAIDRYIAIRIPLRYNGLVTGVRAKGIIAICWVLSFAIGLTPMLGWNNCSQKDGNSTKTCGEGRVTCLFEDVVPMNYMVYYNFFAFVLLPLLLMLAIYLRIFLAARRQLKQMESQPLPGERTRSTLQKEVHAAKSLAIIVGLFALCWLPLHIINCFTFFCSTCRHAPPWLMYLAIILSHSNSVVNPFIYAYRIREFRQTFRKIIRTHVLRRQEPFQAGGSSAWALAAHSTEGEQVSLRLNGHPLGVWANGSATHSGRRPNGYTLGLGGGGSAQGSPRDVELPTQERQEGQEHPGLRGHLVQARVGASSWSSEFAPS

inhibition at 0.1 µM (adenosine A2A receptor) | inhibition at 0.01 µM (adenosine A2A receptor) | SMILES | Total score (catalepsy) [1] | Number of Animals showing remission [1] | inhibition in vivo at 10 mg/kg [1]
52% | – | CC(CO)N1CCN(c2cc3nc(-c4ccco4)nn3c(N)n2)CC1 (racemic) [Compound 111, (±)-5-Amino-2-(2-furyl)-7-(4-((2-hydroxy-1-methyl)ethyl)piperazinyl)[1,2,4]triazolo[1,5-c]pyrimidine] | – | – | –
54% | 16% | COc1ccc(CNc2nc(Sc3ccccc3)cc3nc(-c4ccco4)nn23)cc1OC [Compound 10, 5-(3,4-Dimethoxybenzylamino)-2-(2-furyl)-7-phenylthio[1,2,4]triazolo[1,5-c]pyrimidine] | – | – | –
86% | 46% | COc1cc(OC)cc(Oc2cc3nc(-c4ccco4)nn3c(N)n2)c1 [Compound 33, 5-Amino-7-(3,5-dimethoxyphenoxy)-2-(2-furyl)[1,2,4]triazolo[1,5-c]pyrimidine] | – | – | –
79% | 20% | Nc1nc(N2CCN(Cc3ccc4c(c3)OCO4)CC2)cc2nc(-c3ccco3)nn12 [Compound 66, 5-Amino-2-(2-furyl)-7-(4-piperonylpiperazinyl)[1,2,4]triazolo[1,5-c]pyrimidine] | – | – | –
77% | 39% | COc1ccc(CN2CCN(c3cc4nc(-c5ccco5)nn4c(N)n3)CC2)cc1OC [Compound 67, 5-Amino-7-[4-(3,4-dimethoxybenzyl)piperazinyl]-2-(2-furyl)[1,2,4]triazolo[1,5-c]pyrimidine] | – | – | –
90% | 59% | Nc1nc(N2CCN(Cc3ccccc3Cl)CC2)cc2nc(-c3ccco3)nn12 [Compound 68, 5-Amino-7-[4-(2-chlorobenzyl)piperazinyl]-2-(2-furyl)[1,2,4]triazolo[1,5-c]pyrimidine] | – | – | –
62% | 44% | Nc1nc(N2CCN(Cc3cccc(Cl)c3)CC2)cc2nc(-c3ccco3)nn12 [Compound 69, 5-Amino-7-[4-(3-chlorobenzyl)piperazinyl]-2-(2-furyl)[1,2,4]triazolo[1,5-c]pyrimidine] | – | – | –
66% | 17% | Nc1nc(N2CCN(Cc3cccnc3)CC2)cc2nc(-c3ccco3)nn12 [Compound 70, 5-Amino-2-(2-furyl)-7-[4-(3-picolyl)piperazinyl][1,2,4]triazolo[1,5-c]pyrimidine] | – | – | –
73% | 29% | Nc1nc(N2CCN(Cc3ccncc3)CC2)cc2nc(-c3ccco3)nn12 [Compound 71, 5-Amino-2-(2-furyl)-7-[4-(4-picolyl)piperazinyl][1,2,4]triazolo[1,5-c]pyrimidine] | – | – | –
66% | 10% | Nc1nc(N2CCN(CC3CCCCC3)CC2)cc2nc(-c3ccco3)nn12 [Compound 72, 5-Amino-7-(4-cyclohexylmethylpiperazinyl)-2-(2-furyl)[1,2,4]triazolo[1,5-c]pyrimidine] | – | – | –
86% | 51% | CC(c1ccccc1)N1CCN(c2cc3nc(-c4ccco4)nn3c(N)n2)CC1 (stereo not shown) [Compound 73, 5-Amino-2-(2-furyl)-7-[4-(1-phenylethyl)piperazinyl][1,2,4]triazolo[1,5-c]pyrimidine] | – | – | –
80% | – | COc1ccc(CCN2CCN(c3cc4nc(-c5ccco5)nn4c(N)n3)CC2)cc1OC [Compound 85, 5-Amino-7-(4-(2-(3,4-dimethoxyphenyl)ethyl)piperazinyl)-2-(2-furyl)[1,2,4]triazolo[1,5-c]pyrimidine] | – | – | –
– | – | Cc1ncc(CN2CCN(c3cc4nc(-c5ccco5)nn4c(N)n3)CC2)s1 [Compound 145, 5-Amino-2-(2-furyl)-7-(4-(2-methylthiazol-5-ylmethyl)piperazinyl)[1,2,4]triazolo[1,5-c]pyrimidine] | 3 | 10 | 92%
– | – | Nc1nc(N2CCN(Cc3ccsc3)CC2)cc2nc(-c3ccco3)nn12 [Compound 146] | 3 | 10 | 94%
– | – | Nc1ncc(C=O)c2nc(-c3ccco3)nn12 [Compound 163, 5-Amino-8-formyl-2-(2-furyl)[1,2,4]triazolo[1,5-c]pyrimidine] | 3 | 10 | 94%
– | – | Nc1ncc(C(=O)N2CCCCC2)c2nc(-c3ccco3)nn12 [Compound 175] | 12 | 10 | 74%
– | – | Nc1ncc(C(=O)N2CCOCC2)c2nc(-c3ccco3)nn12 [Compound 177] | 13 | 9 | 72%
– | – | Nc1nc(SCc2ccncc2)cc2nc(-c3ccco3)nn12 [Compound 181, 5-Amino-2-(2-furyl)-7-(4-picolylthio)[1,2,4]triazolo[1,5-c]pyrimidine] | 14 | 8 | 72%
– | – | COC(=O)c1ccc(CSc2cc3nc(-c4ccco4)nn3c(N)n2)cc1 [Compound 190, 5-Amino-2-(2-furyl)-7-(4-methoxycarbonylbenzylthio)[1,2,4]triazolo[1,5-c]pyrimidine] | 13 | 10 | 72%
– | – | Nc1nc(SCc2ccccc2Cl)cc2nc(-c3ccco3)nn12 [Compound 200, 5-Amino-7-(2-chlorobenzylthio)-2-(2-furyl)[1,2,4]triazolo[1,5-c]pyrimidine] | 14 | 9 | 70%
– | – | Nc1nc(SCc2ccccc2F)cc2nc(-c3ccco3)nn12 [Compound 201, 5-Amino-7-(2-fluorobenzylthio)-2-(2-furyl)[1,2,4]triazolo[1,5-c]pyrimidine] | 10 | 10 | 78%
– | – | Nc1nc(SCc2ccccc2C=O)cc2nc(-c3ccco3)nn12 [Compound 213, 5-Amino-7-(2-formylbenzylthio)-2-(2-furyl)[1,2,4]triazolo[1,5-c]pyrimidine] | 15 | 10 | 70%
– | – | Cc1c(N2CCN(CCO)CC2)nc(N)n2nc(-c3ccco3)nc12 [Compound 222, 5-Amino-2-(2-furyl)-7-(4-(2-hydroxyethyl)piperazinyl)-8-methyl[1,2,4]triazolo[1,5-c]pyrimidine] | 9 | 10 | 80%
– | – | COCCN1CCN(c2nc(N)n3nc(-c4ccco4)nc3c2C)CC1 [Compound 223, 5-Amino-2-(2-furyl)-7-(4-(2-methoxyethyl)piperazinyl)-8-methyl[1,2,4]triazolo[1,5-c]pyrimidine] | 15 | 9 | 68%
– | – | Nc1nc(Oc2ccc(Br)cc2)cc2nc(-c3ccco3)nn12 [Compound 228] | 14 | 8 | 72%
